Activity calls are given as the source filed them. No cut-off for these calls is given here.
Columns and labels:
[1] = biological target: Histone acetyltransferase KAT7 (Homo sapiens, UniProt O95251); test: Inhibition of full length N-terminal GST-tagged human recombinant KAT7 expressed in Sf9 insect cells using H4-derived peptide as substrate incubated for 30 mins in presence of AcCoA by TR-FRET assay
[2] = Metabolic stability in dog hepatocyte assessed as clearance measured for 2 to 90 mins by LC-MS/MS analysis; format: ADME, cell-based, Canis lupus familiaris; settings: hepatocytes, time 2-90 min
[3] = Stability of compound in PBS buffer at pH 7 measured for 24 hrs by HPLC analysis; format: physicochemical; settings: pH 7, 24 h
MDA-MB-361 = test: Antiproliferative activity against human MDA-MB-361 cells assessed as inhibition of cell growth incubated for 6 days by alamar blue staining based assay relative to control; format: functional; settings: time 6 day
[4] = Metabolic stability in mouse liver microsome assessed as maximum bioavailability of the drug measured for 2 to 60 mins by LC-MS/MS analysis; format: ADME; settings: liver microsomes, time 2-60 min, read-out: Fmax
[5] = Stability in rat plasma assessed as parent compound remaining after 4 hrs; format: ADME, cell-free
[6] = Toxicity in female estradiol-primed NMRI mouse assessed as tolerability at 50 to 10 mg/kg, po administered twice daily measured at 2 to 3 days; format: organism-based; settings: in vivo, dose lower 50 mg/kg, time lower 2 day, dose upper 10 mg/kg, time upper 3 day
[7] = AUC in mouse at 0.5 mg/kg, iv; format: ADME, organism-based; settings: in vivo
LCLC-97TM1 = test: Antiproliferative activity against human LCLC-97TM1 cells assessed as inhibition of cell proliferation incubated for 6 days by alamar blue staining based assay; format: functional; settings: time 6.0 day
[8] = biological target: Voltage-gated inwardly rectifying potassium channel KCNH2 (Homo sapiens, UniProt Q12809); test: Inhibition of hERG; format: toxicity
Voltage-gated inwardly rectifying potassium channel KCNH2, sequence (Q12809 whole entry): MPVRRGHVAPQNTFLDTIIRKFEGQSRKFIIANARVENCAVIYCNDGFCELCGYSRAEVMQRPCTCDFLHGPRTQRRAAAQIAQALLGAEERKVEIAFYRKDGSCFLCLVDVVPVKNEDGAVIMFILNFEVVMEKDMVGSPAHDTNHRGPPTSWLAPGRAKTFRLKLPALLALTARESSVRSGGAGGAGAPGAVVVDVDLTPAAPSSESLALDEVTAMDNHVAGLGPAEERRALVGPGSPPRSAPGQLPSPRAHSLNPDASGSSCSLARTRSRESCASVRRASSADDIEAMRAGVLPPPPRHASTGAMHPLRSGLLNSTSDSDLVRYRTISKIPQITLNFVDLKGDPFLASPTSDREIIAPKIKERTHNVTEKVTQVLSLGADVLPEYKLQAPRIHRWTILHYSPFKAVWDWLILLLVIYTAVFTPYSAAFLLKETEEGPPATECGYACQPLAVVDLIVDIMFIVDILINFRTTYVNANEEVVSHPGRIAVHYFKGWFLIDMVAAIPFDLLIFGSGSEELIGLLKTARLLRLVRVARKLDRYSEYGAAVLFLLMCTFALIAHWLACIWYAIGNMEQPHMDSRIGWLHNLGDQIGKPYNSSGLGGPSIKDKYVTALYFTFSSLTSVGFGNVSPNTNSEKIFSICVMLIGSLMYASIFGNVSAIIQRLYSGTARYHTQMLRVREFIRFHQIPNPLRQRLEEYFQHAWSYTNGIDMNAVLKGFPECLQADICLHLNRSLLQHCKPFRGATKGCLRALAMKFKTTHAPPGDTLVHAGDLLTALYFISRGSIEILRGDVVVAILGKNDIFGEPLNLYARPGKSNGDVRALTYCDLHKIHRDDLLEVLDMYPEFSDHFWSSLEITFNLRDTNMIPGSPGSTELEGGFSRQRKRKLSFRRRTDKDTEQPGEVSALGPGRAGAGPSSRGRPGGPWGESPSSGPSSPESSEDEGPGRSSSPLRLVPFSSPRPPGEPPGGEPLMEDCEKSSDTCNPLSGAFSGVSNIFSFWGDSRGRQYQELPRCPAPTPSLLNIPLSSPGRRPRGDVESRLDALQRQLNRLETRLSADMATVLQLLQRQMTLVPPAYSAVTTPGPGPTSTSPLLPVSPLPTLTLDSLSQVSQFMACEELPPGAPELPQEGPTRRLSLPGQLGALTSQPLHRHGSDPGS

MCF7 = test: Antiproliferative activity against human MCF7 cells assessed as inhibition of cell growth incubated for 6 days by alamar blue staining based assay relative to control; format: functional; settings: time 6 day
[9] = Metabolic stability in human liver microsome assessed as maximum bioavailability of the drug measured for 2 to 60 mins by LC-MS/MS analysis; format: ADME; settings: liver microsomes, time 2-60 min, read-out: Fmax
[10] = Half life in mouse at 0.5 mg/kg, iv; format: ADME, organism-based; settings: in vivo
[11] = Mutagenicity in Salmonella typhimurium TA1537 by Ames test; format: toxicity; settings: salmonella enterica subsp. enterica serovar typhimurium
[12] = biological target: Histone acetyltransferase p300 (Homo sapiens, UniProt Q09472); test: Inhibition of GST-tagged human recombinant p300 (965 to 1810 residues) expressed in Sf9 insect cells using H3-derived peptide as substrate incubated for 30 mins in presence of AcCoA by TR-FRET assay
Histone acetyltransferase p300, sequence (Q09472 whole entry, the tested form may be a part): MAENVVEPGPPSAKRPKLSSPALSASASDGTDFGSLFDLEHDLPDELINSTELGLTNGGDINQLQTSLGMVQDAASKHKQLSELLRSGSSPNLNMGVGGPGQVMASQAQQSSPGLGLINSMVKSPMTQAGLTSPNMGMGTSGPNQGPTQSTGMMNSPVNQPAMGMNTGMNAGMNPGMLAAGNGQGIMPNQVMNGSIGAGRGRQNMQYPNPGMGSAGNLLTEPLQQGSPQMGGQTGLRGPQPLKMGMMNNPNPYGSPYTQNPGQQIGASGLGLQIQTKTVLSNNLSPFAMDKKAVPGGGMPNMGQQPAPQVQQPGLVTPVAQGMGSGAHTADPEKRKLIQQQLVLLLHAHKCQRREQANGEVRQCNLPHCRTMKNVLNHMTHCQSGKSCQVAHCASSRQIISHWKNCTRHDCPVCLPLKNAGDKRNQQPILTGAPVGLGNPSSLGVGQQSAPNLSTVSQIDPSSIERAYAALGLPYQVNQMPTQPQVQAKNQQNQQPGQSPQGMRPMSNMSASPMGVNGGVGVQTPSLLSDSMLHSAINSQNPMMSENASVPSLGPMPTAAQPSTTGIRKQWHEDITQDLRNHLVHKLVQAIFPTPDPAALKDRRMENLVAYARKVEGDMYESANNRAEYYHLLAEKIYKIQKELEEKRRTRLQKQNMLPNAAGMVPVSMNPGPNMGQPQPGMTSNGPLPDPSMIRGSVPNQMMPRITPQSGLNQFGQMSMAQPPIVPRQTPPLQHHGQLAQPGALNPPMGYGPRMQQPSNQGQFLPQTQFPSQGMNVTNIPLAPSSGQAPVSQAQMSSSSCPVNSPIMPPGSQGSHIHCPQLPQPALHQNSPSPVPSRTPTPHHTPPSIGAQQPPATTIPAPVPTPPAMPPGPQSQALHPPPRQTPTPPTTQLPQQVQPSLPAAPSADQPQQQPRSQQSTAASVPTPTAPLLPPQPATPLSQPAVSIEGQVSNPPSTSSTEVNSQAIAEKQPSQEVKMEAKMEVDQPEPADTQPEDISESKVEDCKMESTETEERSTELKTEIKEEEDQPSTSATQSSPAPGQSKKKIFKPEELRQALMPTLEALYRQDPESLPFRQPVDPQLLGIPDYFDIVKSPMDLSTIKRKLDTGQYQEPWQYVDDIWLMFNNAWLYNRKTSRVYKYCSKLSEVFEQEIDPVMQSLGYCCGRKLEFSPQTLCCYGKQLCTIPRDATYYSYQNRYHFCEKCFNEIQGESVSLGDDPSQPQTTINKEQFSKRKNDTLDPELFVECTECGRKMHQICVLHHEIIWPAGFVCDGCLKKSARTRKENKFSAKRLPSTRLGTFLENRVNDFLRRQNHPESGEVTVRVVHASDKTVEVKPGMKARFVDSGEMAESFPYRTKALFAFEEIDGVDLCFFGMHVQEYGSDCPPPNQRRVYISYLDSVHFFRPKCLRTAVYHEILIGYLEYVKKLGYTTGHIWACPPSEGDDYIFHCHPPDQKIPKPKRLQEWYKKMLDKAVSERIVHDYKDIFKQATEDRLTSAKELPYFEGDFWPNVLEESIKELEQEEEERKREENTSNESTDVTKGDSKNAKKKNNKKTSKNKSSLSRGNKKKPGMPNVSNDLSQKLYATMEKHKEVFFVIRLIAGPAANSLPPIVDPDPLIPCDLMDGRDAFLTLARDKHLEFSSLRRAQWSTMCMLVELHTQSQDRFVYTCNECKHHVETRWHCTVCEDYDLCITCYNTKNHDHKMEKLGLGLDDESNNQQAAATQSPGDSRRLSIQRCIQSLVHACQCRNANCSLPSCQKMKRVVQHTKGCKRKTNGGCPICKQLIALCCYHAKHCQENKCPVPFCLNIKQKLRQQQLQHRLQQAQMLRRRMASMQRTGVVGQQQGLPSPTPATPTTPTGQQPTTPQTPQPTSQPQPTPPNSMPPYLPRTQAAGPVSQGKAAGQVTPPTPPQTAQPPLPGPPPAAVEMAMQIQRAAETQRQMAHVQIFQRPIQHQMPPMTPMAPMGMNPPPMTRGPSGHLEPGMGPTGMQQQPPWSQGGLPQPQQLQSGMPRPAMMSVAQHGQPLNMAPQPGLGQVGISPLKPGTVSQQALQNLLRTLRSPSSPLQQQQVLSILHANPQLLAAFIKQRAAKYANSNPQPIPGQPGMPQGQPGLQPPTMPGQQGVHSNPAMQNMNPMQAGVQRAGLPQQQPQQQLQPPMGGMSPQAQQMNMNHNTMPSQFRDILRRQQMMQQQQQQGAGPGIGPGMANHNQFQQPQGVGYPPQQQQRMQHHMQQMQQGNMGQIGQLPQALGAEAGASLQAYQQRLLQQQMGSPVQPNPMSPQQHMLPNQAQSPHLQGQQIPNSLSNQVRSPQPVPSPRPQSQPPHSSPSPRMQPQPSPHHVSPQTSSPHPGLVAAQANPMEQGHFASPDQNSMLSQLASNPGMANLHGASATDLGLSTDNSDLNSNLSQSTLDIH

[13] = Metabolic stability in mouse hepatocyte assessed as maximum bioavailability of the drug measured for 2 to 90 mins by LC-MS/MS analysis; format: ADME; settings: hepatocytes, time 2-90 min, read-out: Fmax
HCC1806 = test: Antiproliferative activity against human HCC1806 cells assessed as inhibition of cell growth incubated for 6 days by alamar blue staining based assay relative to control; format: functional; settings: time 6 day
[14] = Antiproliferative activity against human HCC1500 cells assessed as inhibition of cell growth incubated for 6 days by alamar blue staining based assay relative to control; format: functional; settings: time 6 day
[15] = Volume of distribution at steady state in mouse at 0.5 mg/kg, iv; format: ADME, organism-based; settings: in vivo, read-out: Vdss
[16] = Stability of compound in HCL buffer at pH 1 measured for 24 hrs by HPLC analysis; format: physicochemical; settings: pH 1, 24 h
[17] = Mutagenicity in Salmonella typhimurium TA100 by Ames test; format: toxicity; settings: salmonella enterica subsp. enterica serovar typhimurium
BT-549 = test: Antiproliferative activity against human BT-549 cells assessed as inhibition of cell growth incubated for 6 days by alamar blue staining based assay relative to control; format: functional; settings: time 6 day
MDA-MB-231 = test: Antiproliferative activity against human MDA-MB-231 cells assessed as inhibition of cell growth incubated for 6 days by alamar blue staining based assay relative to control; format: functional; settings: time 6 day
[18] = Half life in male Wistar rat at 0.5 mg/kg, iv measured upto 24 hrs by LC-MS/S analysis; format: ADME, organism-based; settings: in vivo
[19] = Volume of distribution at steady state in male Wistar rat at 0.5 mg/kg, iv or 1 mg/kg, po measured upto 24 hrs by LC-MS/S analysis; format: ADME, organism-based; settings: in vivo
[20] = Metabolic stability in dog liver microsome assessed as clearance measured for 2 to 60 mins by LC-MS/MS analysis; format: ADME, Canis lupus familiaris; settings: microsomes, time 2-60 min
MFM-223 = test: Antiproliferative activity against human MFM-223 cells assessed as inhibition of cell growth incubated for 6 days by alamar blue staining based assay relative to control; format: functional; settings: time 6 day
[21] = Plasma protein binding in mouse assessed as unbound fraction equilibrium dialysis based LC-MS/MS analysis; format: ADME, cell-free
[22] = Metabolic stability in mouse liver microsome assessed as clearance measured for 2 to 60 mins by LC-MS/MS analysis; format: ADME; settings: microsomes, time 2-60 min
[23] = biological target: Histone acetyltransferase KAT6A (Homo sapiens, UniProt Q92794); test: Inhibition of KAT6A in human ZR-75-1 cells assessed as reduction in H3K23ac level at 1 uM measured after 144 hrs by Western blot analysis; format: cell-based
[24] = Tmax in male Wistar rat at 1 mg/kg, po measured upto 24 hrs by LC-MS/S analysis; format: ADME, organism-based; settings: in vivo
[25] = Stability of compound in borate buffer at pH 10 measured for 24 hrs by HPLC analysis; format: physicochemical; settings: pH 10, 24 h
[26] = biological target: T1, Histone acetyltransferase KAT8 (Homo sapiens, UniProt Q9H7Z6); test: Inhibition of full length N-terminal GST-tagged human recombinant KAT8 (174 to 449 residues) using H4-derived peptide as substrate incubated for 60 mins in presence of AcCoA by TR-FRET assay; parameters: species or system Sf9
T1 sequence (Q9H7Z6 whole entry): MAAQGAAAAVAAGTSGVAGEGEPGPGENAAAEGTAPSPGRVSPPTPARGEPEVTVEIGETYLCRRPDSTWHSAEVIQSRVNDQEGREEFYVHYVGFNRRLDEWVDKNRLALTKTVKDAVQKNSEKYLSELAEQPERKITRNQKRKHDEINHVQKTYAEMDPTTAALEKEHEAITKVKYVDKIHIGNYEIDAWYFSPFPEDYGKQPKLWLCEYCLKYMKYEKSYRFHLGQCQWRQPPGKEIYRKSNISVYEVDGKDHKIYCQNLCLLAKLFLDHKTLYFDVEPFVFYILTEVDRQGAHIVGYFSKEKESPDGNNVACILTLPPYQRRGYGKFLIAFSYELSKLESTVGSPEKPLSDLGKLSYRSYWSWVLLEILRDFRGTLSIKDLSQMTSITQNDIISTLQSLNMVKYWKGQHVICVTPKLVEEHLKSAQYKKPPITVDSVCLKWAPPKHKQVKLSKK

ZR-75-1 = test: Antitumor activity against human ZR-75-1 cells xenografted in po dosed female estradiol-primed NMRI mouse assessed as inhibition of tumor growth administered twice daily measured at 2 to 3 days; format: functional, organism-based; settings: time 2-3 day
CAMA-1 = test: Antiproliferative activity against human CAMA-1 cells assessed as inhibition of cell growth incubated for 6 days by alamar blue staining based assay relative to control; format: functional; settings: time 6 day
[27] = Mutagenicity in Salmonella typhimurium TA1535 by Ames test; format: toxicity; settings: salmonella enterica subsp. enterica serovar typhimurium

Histone acetyltransferase KAT7, sequence (O95251 whole entry): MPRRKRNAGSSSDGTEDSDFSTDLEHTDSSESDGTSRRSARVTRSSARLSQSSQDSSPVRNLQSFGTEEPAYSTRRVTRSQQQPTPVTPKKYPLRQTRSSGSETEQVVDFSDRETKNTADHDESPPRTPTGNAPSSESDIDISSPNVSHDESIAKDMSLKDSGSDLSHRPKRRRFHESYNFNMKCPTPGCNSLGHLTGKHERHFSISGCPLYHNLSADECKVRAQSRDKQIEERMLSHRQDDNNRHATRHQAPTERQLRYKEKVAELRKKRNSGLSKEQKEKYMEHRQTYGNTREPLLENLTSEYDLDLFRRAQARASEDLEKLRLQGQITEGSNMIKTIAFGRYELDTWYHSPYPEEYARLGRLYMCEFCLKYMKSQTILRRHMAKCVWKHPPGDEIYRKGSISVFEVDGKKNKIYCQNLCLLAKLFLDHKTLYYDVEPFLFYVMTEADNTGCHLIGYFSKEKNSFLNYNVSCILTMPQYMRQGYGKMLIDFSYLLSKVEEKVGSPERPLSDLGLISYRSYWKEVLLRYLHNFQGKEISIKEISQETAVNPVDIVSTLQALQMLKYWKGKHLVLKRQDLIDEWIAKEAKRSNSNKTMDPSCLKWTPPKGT

For CN(C)c1ccc2cc(C(=O)NS(=O)(=O)c3ccccc3-c3ccccc3)oc2c1, which IC50 [1] is on record?
Its IC50 is 1.07 µM.

What about the CLH [2] of the same compound?
The CLH was 16.5 mL/min/kg.

What about the Stability [3] of the same compound?
The Stability was “Stable”.

And the “inhibition (INH)” value (MDA-MB-361)?
Its value is 22%.

And the Fh [4]?
Its Fh is 29%.

And the Stability [5]?
Its Stability is “Stable”.

And the Activity [6]?
The Activity was “Non-toxic”.

What about the AUC [7] of the same compound?
Its AUC is 2.5 kg·h/L.

And the Activity (LCLC-97TM1)?
The Activity was “Active”.

What about the “inhibition (INH)” value [8] of the same compound?
Its value is “Not_active”.

What about the “inhibition (INH)” value (MCF7) of the same compound?
The value was 66%.

What about the Fh [9] of the same compound?
Its Fh is 41%.

What about the half-life [10] of the same compound?
Its half-life is 1.3 h.

And the Activity [11]?
The Activity was “Non-toxic”.

And the IC50 [12]?
Its IC50 is > 10 µM.

What about the Fh [13] of the same compound?
Its Fh is 33%.

What about the “inhibition (INH)” value (HCC1806) of the same compound?
The value was 0%.

And the “inhibition (INH)” value [14]?
Its value is 49%.

And the Vd [15]?
The Vd was 0.32 L/kg.

What about the Stability [16] of the same compound?
The Stability was “Stable”.

What about the Activity [17] of the same compound?
Its Activity is “Non-toxic”.

What about the “inhibition (INH)” value (BT-549) of the same compound?
Its value is 0%.

And the “inhibition (INH)” value (MDA-MB-231)?
The value was 0%.

What about the t1/2 [18] of the same compound?
Its t1/2 is 0.94 h.

What about the Vdss [19] of the same compound?
Its Vdss is 0.13 L/kg.

What about the CLH [20] of the same compound?
Its CLH is 6.83 mL/min/kg.

What about the “inhibition (INH)” value (MFM-223) of the same compound?
The value was 61%.

And the Fu [21]?
The Fu was 0.31%.

What about the CLH [22] of the same compound?
The CLH was 63.3 mL/min/kg.

What about the inhibition [23] of the same compound?
Its inhibition is “inactive”.

What about the Tmax [24] of the same compound?
Its Tmax is 0.5 h.

What about the Stability [25] of the same compound?
Its Stability is “Stable”.

What about the IC50 [26] of the same compound?
Its IC50 is > 10 µM.

And the Activity (ZR-75-1)?
The Activity was “Dose-dependent-effect”.

And the “inhibition (INH)” value (CAMA-1)?
Its value is 68%.

What about the Activity [27] of the same compound?
Its Activity is “Non-toxic”.

From ChEMBL document CHEMBL6092206, “Discovery and Characterization of BAY-184: A New Potent and Selective Acylsulfonamide-Benzofuran In Vivo-Active KAT6AB Inhibitor” (J Med Chem, 2024)
